From patent US20130052381A1, “POLYEPOXIDES AND EPOXY RESINS AND METHODS FOR THE MANUFACTURE AND USE THEREOF” (priority 2011, published 2013)

Columns and labels:
[1] = target: T1, recombinant human estradiol receptors (rhER) alpha (α) (Homo sapiens, UniProt P03372); assay: competitive radioligand binding assay, rhER alpha; settings: at as high as […]10^−4 molar concentration
T1 sequence (P03372 1-595): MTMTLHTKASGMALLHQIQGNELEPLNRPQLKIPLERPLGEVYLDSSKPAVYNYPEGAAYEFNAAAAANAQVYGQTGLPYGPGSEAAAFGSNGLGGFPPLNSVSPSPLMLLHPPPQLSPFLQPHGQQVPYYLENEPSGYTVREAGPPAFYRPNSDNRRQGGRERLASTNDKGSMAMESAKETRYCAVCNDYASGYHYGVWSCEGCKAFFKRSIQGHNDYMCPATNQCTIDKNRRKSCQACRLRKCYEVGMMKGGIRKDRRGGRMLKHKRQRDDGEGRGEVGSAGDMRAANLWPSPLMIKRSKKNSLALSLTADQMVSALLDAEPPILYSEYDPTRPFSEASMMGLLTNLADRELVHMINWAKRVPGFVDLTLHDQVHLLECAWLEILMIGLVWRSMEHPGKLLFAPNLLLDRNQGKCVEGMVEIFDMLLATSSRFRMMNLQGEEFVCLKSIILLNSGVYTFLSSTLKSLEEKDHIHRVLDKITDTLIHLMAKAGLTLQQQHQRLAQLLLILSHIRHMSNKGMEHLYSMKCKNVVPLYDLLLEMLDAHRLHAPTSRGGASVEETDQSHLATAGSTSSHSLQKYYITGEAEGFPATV

[2] = target: recombinant human estradiol receptors (rhER) beta 1 (β1) (Homo sapiens, UniProt Q92731); assay: competitive radioligand binding assay, rhER beta 1; settings: at as high as […]10^−4 molar concentration

Compound	estradiol displacement at the alpha estradiol receptor [1]	estradiol displacement at the beta estradiol receptor [2]
Oc1cccc(O)c1 [Example 5, Resorcinol]	no detectible estradiol displacement	no detectible estradiol displacement
Biphenol [Example 7]	no displacement	
Cc1cc(O)ccc1O [Example 9, Methyl Hydroquinone]		no alpha or beta estradiol displacement
O=C1c2ccccc2C(c2ccc(O)cc2)(c2ccc(O)cc2)N1c1ccccc1 [Example 4, N-Phenyl Phenolphthalein Bisphenol]	no detectible estradiol displacement	no detectible estradiol displacement
CC(C)(C)c1cc(O)c(C(C)(C)C)cc1O [Example 8, Di t-Butyl Hydroquinone]	no displacement	no displacement
